Assay results published in patent US20240150356A1, “Pyrimidine amide compounds and use thereof” (ALPHALA CO., LTD., priority 2019, published 2024).
Read-outs that look alike come from different tables or passages of the source.

Tested on: Hep3B cells (hepatocellular carcinoma cell line)
Experiment: In vitro MTS cell viability assay (NCI-60 methodology), Hep3B
Format: cell-based
Conditions: Homo sapiens, 48 h, 2 days drug incubation, 50% reduction vs time zero, read-out: Hep3B LC50
Experimental: The cell viability measurement is based on the NCI-60 screening methodology (Nat. Rev. Cancer 6, 813-823, 2006). Briefly, cells are inoculated into 96-well plates at the optimal plating density. After 24 h, one of the two plates for Hep3B cell line is processed to determine a time zero cell viability (Tz) by MTS assay (Promega). Compounds are added over a 2-fold serial dilution to provide a total five drug concentrations plus DMSO control. Plates are incubated for a further 2 days, then measured cell viability by MTS assay [control growth (C) and test growth in the presence of drug at the five concentration levels (Ti)]. The LC50 is calculated from [(Ti−Tz)/Tz]×100=−50, which is the drug concentration resulting in a 50% reduction at the end of the drug treatment as compared to that at the beginning.
The compounds prepared in Tables 1-10 were tested in three in vitro assays, and the results are shown in Tables 1-10 for Hep3B and Table 11 for SW480 and NCI-H460 shown below. Herein, Hep3B refers to hepatocellular carcinoma cell line, SW480 refers to colon adenocarcinoma cell line, and NCI-H460 refers to human lung cancer cell line.
Shown in following Tables 1 to 10 are the structures and in vitro activities of exemplary compounds of formula (I).

SMILES | LC50 (Table 6, MTS) [nM] | further results
COc1ccc(-n2ncc3c(NC(=O)c4ccc([N+](=O)[O-])s4)nc(-c4ccc(F)c(F)c4)nc32)cc1 [Compound 6-23, N-(6-(3,4-difluorophenyl)-1-(4-methoxyphenyl)-1H-pyrazolo[3,4-d]pyrimidin-4-yl)-5-nitrothiophene-2-carboxamide] | 170 | –
O=C(Nc1nc(-c2ccc(C(F)(F)F)cc2)nc2c1cnn2-c1ccc(F)cc1)c1ccc([N+](=O)[O-])s1 [Compound 6-122, N-(1-(4-fluorophenyl)-6-(4-(trifluoromethyl)phenyl)-1H-pyrazolo[3,4-d]pyrimidin-4-yl)-5-nitrothiophene-2-carboxamide] | 280 | –
CCOCCOCCOC(=O)N1CCC(n2ncc3c(NC(=O)c4ccc([N+](=O)[O-])s4)nc(-c4cccs4)nc32)CC1 [Compound 9-10, 2-(2-ethoxyethoxy)ethyl 4-(4-(5-nitrothiophene-2-carboxamido)-6-(thiophen-2-yl)-1H-pyrazolo[3,4-d]pyrimidin-1-yl)piperidine-1-carboxylate] | – | LC50 (Table 9, MTS): > 3000 nM
CC(C)(C)c1ccc(-c2csc3c(NC(=O)c4ccc([N+](=O)[O-])s4)nc(-c4ccc(F)cc4)nc23)cc1 [Compound 4-19, N-(7-(4-(tert-butyl)phenyl)-2-(4-fluorophenyl)thieno[3,2-d]pyrimidin-4-yl)-5-nitrothiophene-2-carboxamide] | – | LC50 (Table 4, MTS): 670 nM
CC(C)(C)c1ccc(-c2nc(NC(=O)c3ccc([N+](=O)[O-])s3)c3cnn(-c4ccc(OC(F)(F)F)cc4)c3n2)cc1 [Compound 6-86, N-(6-(4-(tert-butyl)phenyl)-1-(4-(trifluoromethoxy)phenyl)-1H-pyrazolo[3,4-d]pyrimidin-4-yl)-5-nitrothiophene-2-carboxamide] | 3460 | –
Cc1csc2c(-c3cccc(OC(F)(F)F)c3)nc(NC(=O)c3ccc([N+](=O)[O-])s3)nc12 [Compound 2-7, N-(7-methyl-(3-(trifluoromethoxy)phenyl)thieno[3,2-d]pyrimidin-2-yl)-5-nitrothiophene-2-carboxamide] | – | LC50 (Table 2, MTS): 3430 nM
COc1ccc(-n2ncc3c(NC(=O)c4ccc([N+](=O)[O-])s4)nc(NC4CCCCC4)nc32)cc1 [Compound 6-15, N-(6-(cyclohexylamino)-1-(4-methoxyphenyl)-1H-pyrazolo[3,4-d]pyrimidin-4-yl)-5-nitrothiophene-2-carboxamide] | > 1250 | –
CC(C)(C)c1ccc(-n2ncc3c(NC(=O)c4ccc([N+](=O)[O-])s4)nc(-n4cc(C(F)(F)F)cn4)nc32)cc1 [Compound 6-78, N-(1-(4-(ter-butyl)phenyl)-6-(4-(trifluoromethyl)-1H-pyrazol-1-yl)-1H-pyrazolo[3,4-d]pyrimidin-4-yl)-5-nitrothiophene-2-carboxamide] | 570 | –
O=C(Nc1nc(-c2ccc(C(F)(F)F)cc2C(F)(F)F)nc2c1cnn2-c1cccc(Cl)c1)c1ccc([N+](=O)[O-])s1 [Compound 6-42] | 760 | –
O=C(Nc1nc(-c2ccccc2F)nc2c1cnn2C1CCCCC1)c1ccc([N+](=O)[O-])s1 [Compound 10-11, N-(1-cyclohexyl-6-(2-fluorophenyl)-1H-pyrazolo[3,4-d]pyrimidin-4-yl)-5-nitrothiophene-2-carboxamide] | – | LC50 (Table 10, MTS): 1940 nM
Cc1nn(C)c2c(NC(=O)c3ccc([N+](=O)[O-])s3)nc(-c3cccc(C(F)(F)F)c3)nc12 [Compound 3-2, N-(1,3-dimethyl-5-(3-(trifluoromethyl)phenyl)-1H-pyrazolo[4,3-d]pyrimidin-7-yl)-5-nitrothiophene-2-carboxamide] | – | LC50 (Table 3, MTS): 860 nM
O=C(Nc1nc(C2CCNCC2)nc2c1cnn2-c1ccccc1)c1ccc([N+](=O)[O-])s1 [Compound 5-1, 5-nitro-N-(1-phenyl-6-(piperidin-4-yl)-1H-pyrazolo[3,4-d]pyrimidin-4-yl)thiophene-2-carboxamide] | – | LC50 (Table 5, MTS): > 5000 nM
CN(C)c1cccc(-c2nc(NC(=O)c3ccc([N+](=O)[O-])s3)c3cnn(-c4ccccc4)c3n2)c1 [Compound 5-41, N-(6-(3-(dimethylamino)phenyl)-1-phenyl-1H-pyrazolo[3,4-d]pyrimidin-4-yl)-5-nitrothiophene-2-carboxamide] | – | LC50 (Table 5, MTS): 450 nM
CCOCCOc1ccc(-c2nc(NC(=O)c3ccc([N+](=O)[O-])s3)c3cnn(-c4cccc(F)c4)c3n2)cn1 [Compound 6-95, N-(6-(6-(2-ethoxyethoxy)pyridin-3-yl)-1-(3-fluorophenyl)-1H-pyrazolo[3,4-d]pyrimidin-4-yl)-5-nitrothiophene-2-carboxamide] | 290 | –
O=C(Nc1nc(-c2ccsc2)nc2c1cnn2-c1ccc(F)cc1)c1ccc([N+](=O)[O-])s1 [Compound 6-107] | 370 | –
O=C(Nc1nc(-n2ccc(C(F)(F)F)n2)nc2c1cnn2-c1ccc(F)cc1)c1ccc([N+](=O)[O-])s1 [Compound 6-109, N-(1-(4-fluorophenyl)-6-(3-(trifluoromethyl)-1H-pyrazol-1-yl)-1H-pyrazolo[3,4-d]pyrimidin-4-yl)-5-nitrothiophene-2-carboxamide] | 380 | –
Cc1ccc(-n2ncc3c(NC(=O)c4ccc([N+](=O)[O-])s4)nc(-c4ccc5c(c4)OCCO5)nc32)cc1 [Compound 6-10, N-(6-(2,3-dihydrobenzo[b][1,4]dioxin-6-yl)-1-(p-tolyl)-1H-pyrazolo[3,4-d]pyrimidin-4-yl)-5-nitrothiophene-2-carboxamide] | 620 | –
CN(C)Cc1ccc(-c2nc(NC(=O)c3ccc([N+](=O)[O-])s3)c3cnn(C4CCCCC4)c3n2)cc1 [Compound 10-29, N-(1-cyclohexyl-6-(4-((dimethylamino)methyl)phenyl)-1H-pyrazolo[3,4-d]pyrimidin-4-yl)-5-nitrothiophene-2-carboxamide] | – | LC50 (Table 10, MTS): 1510 nM
CCOCCOc1ccc(-c2nc(NC(=O)c3ccc([N+](=O)[O-])s3)c3cnn(-c4cccc(Cl)c4)c3n2)cn1 [Compound 6-44, N-(1-(3-chlorophenyl)-6-(6-(2-ethoxyethoxy)pyridin-3-yl)-1H-pyrazolo[3,4-d]pyrimidin-4-yl)-5-nitrothiophene-2-carboxamide] | 450 | –
Cn1ncc2c(NC(=O)c3ccc([N+](=O)[O-])s3)nc(C#Cc3ccc(OC(F)(F)F)cc3)nc21 [Compound 1-14, N-(1-methyl-6-((4-(trifluoromethoxy)phenyl)ethynyl)-1H-pyrazolo[3,4,d]pyrimidin-4-yl)-5-nitrothiophene-2-carboxamide] | – | LC50 (Table 1, MTS): 1670 nM
CC1CCCN(c2nc(NC(=O)c3ccc([N+](=O)[O-])s3)c3cnn(-c4ccc(C(C)(C)C)cc4)c3n2)C1 (centres unmarked) [Compound 6-64, N-(1-(4-(tert-butyl)phenyl)-6-(3-methylpiperidin-1-yl)-1H-pyrazolo[3,4-d]pyrimidin-4-yl)-5-nitrothiophene-2-carboxamide] | 1070 | –
O=C(Nc1nc(-c2ccnc(F)c2)nc2c1cnn2C1CCCCC1)c1ccc([N+](=O)[O-])s1 [Compound 10-15, N-(1-cyclohexyl-6-(2-fluoropyridin-4-yl)-1H-pyrazolo[3,4-d]pyrimidin-4-yl)-5-nitrothiophene-2-carboxamide] | – | LC50 (Table 10, MTS): 1170 nM
COCCOc1ccc(-c2nc(NC(=O)c3ccc([N+](=O)[O-])s3)c3cnn(-c4ccc(Cl)cc4)c3n2)cn1 [Compound 6-51, N-(1-(4-chlorophenyl)-6-(6-(2-methoxyethoxy)pyridin-3-yl)-1H-pyrazolo[3,4-d]pyrimidin-4-yl)-5-nitrothiophene-2-carboxamide] | 50 | –
